The values below are quoted from earlier work in patent US20060147566A1, “Use of physiologically active fatty acids” (priority 2004, published 2006).

Structures are written as SMILES.

The series concerns pruritus. The settings on record: known from clinical studies; acyl salicylate prior art.

`CC(=O)Oc1ccccc1C(=O)O` [aspirin]: the “significance for the treatment of pruritus” value is reported as “about 50%”.
